This test deals with T1, human metabotropic Glutamate 4 receptor (Homo sapiens, UniProt Q14833).
T1 construct: expressed in transfected cells; host or cells: HEK293
Kind of test: In vitro testing of mGluR4 potency (Assay A), cAMP HTRF in HEK293 cells. It is filed as cell-based. The settings on record: Table 2; HEK293 cell overexpressing human mGluR4; 10 uM L-Glutamic acid, 1 uM forskolin. As to the method: A. In Vitro Testing of mGluR4 Potency
The in vitro activity of the compounds according to the invention may be investigated as follows:
The HEK293 cell overexpressing the human metabotropic Glutamate 4 receptor were thawed at 37° C. and immediately diluted with cell culture medium. After centrifugation, the cell pellet is re-suspended in medium and then distributed from a stirred spinner flask into the wells of the assay plate. The plates are incubated for one hour at room temperature before they are incubated for 24 hours at 37° C./5% C02. After washing the cells in the plate three times with 80 uL HBSS/HEPES buffer (10 uL buffer remained in the wells after washing), 5 uL per well of compounds diluted in HBSS/HEPES buffer containing 0.2% BSA (final concentration: 0.1%) and 1 mM IBMX (final concentration: 0.5 mM) are added to the wells of the assay plate. Thereafter 5 uL per well of L-Glutamic acid (final concentration: 10 uM), forskolin (final concentration: 1 uM) and 1 mM IBMX (final concentration: 0.5 mM) dissolved in HBSS/HEPES buffer containing 0.2% BSA (final concentration: 0.1%) are added to the assay plate (final DMSO concentration: 1%). Several wells of the assay plate are used either for the positive and the negative controls or for the cAMP standard curve. The assay plate is incubated for 30 minutes at room temperature. Then 5 ul per well of Anti-cAMP-Antibody-d2 solution and 5 ul per well of cAMP-Europium Cryptate dilution are added to all wells of the plate and the plate is incubated another 60 minutes light protected at room temperature. The emission at 615 nm and 665 nm (Excitation wavelength: 320 nm) are measured on the EnVision™ reader (PerkinElmer). The ratio between the emission at 665 nm and 615 is calculated by the reader. The whole assay is performed in the dark or under green light.
The cAMP standard is prepared by diluting the cAMP stock solution with HBSS/Hepes buffer: 5 μl/well of the cAMP dilutions (in HBSS/Hepes buffer containing 1 mM IBMX and 0.2% BSA-final concentration: 0.5 mM IBMX and 0.1% BSA) are added to 10 ul/well HBSS/Hepes buffer plus 5 ul/well 4% DMSO in HBSS/Hepes containing 0.2% BSA (final DMSO concentration: 1%-like in the wells containing compounds) in the wells of the assay plate. The final cAMP concentrations in the assay plate were: 0, 0.17, 0.69, 2.78, 11.1, 44.5, 178, and 712 nM (two wells/cAMP concentration).
Each assay microtiter plate contained also wells with vehicle controls instead of compound as controls for L-Glutamic acid induced signal (negative control; 100% CTL; 10 uM L-Glutamic acid+1 uM forskolin+0.5 mM IBMX+1% DMSO) and wells with vehicle controls without L-Glutamic acid as controls for non-specific changes in signal (positive control; 0% CTL; 0 uM L-Glutamic acid+1 uM forskolin+0.5 mM IBMX+1% DMSO).
The analysis of the data is performed by the calculation the ratio between the emission at 665 nm and the emission at 615 nm (Em665/Em615 ratio). Thereafter the signals of the compounds are normalized using the positive and negative controls by the following formula:
PoC=100×((Signal Sample−Positive Control)/(Negative Control−Positive Control))

T1 sequence (Q14833 33-912): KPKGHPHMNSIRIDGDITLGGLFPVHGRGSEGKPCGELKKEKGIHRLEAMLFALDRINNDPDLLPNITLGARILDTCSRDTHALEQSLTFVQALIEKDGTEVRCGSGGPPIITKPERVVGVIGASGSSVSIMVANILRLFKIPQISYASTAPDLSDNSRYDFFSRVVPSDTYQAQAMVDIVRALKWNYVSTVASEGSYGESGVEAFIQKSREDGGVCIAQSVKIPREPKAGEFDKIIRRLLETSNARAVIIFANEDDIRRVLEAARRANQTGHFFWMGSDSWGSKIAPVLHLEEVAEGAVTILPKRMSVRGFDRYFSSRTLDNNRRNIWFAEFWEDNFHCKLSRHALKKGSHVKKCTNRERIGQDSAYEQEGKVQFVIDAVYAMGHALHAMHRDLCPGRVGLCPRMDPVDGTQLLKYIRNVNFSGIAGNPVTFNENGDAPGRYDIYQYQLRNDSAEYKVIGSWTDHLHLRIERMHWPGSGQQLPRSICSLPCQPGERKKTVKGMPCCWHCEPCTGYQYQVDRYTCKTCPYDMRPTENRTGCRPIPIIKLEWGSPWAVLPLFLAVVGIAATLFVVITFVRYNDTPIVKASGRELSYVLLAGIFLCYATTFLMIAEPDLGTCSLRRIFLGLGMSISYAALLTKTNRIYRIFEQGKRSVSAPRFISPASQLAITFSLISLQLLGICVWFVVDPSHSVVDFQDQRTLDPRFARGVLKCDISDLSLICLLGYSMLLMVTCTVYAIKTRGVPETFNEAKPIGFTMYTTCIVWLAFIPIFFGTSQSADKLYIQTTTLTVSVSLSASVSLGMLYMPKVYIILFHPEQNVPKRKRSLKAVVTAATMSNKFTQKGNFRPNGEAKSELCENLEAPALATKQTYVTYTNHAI

`CO[C@H](C)[C@H](NC(=O)c1cnc(C(F)F)cn1)c1nc2cc(C(F)(F)F)cnc2n1C(C)C` [Example 24, 5-(difluoromethyl)-N-[(1R)-2-methoxy-1-[3-(propan-2-yl)-6-(trifluoromethyl)-3H-imidazo[4,5-b]pyridin-2-yl]propyl]pyrazine-2-carboxamide] had an IC50 of 10 nM. `Cc1cnc(C(=O)N[C@H](c2nc3cc(Cl)cnc3n2C(C)C)C2(O)CCC2)cn1` [Example 25, N-[(R)-[6-chloro-3-(propan-2-yl)-3H-imidazo[4,5-b]pyridin-2-yl](1-hydroxycyclobutyl)methyl]-5-methylpyrazine-2-carboxamide] yielded an IC50 of 12 nM. This IC50 and that of the molecule before are within 1.5-fold of each other. In turn, `Cc1c(C#N)cnc2c1nc([C@@H](NC(=O)c1cnc(C(F)F)cn1)C1(O)CCC1)n2C(C)C` [Example 26, N-[(R)-[6-cyano-7-methyl-3-(propan-2-yl)-3H-imidazo[4,5-b]pyridin-2-yl](1-hydroxycyclobutyl)methyl]-5-(difluoromethyl)pyridazine-2-carboxamide] gave an IC50 of 13 nM. As to `CC(C)n1c([C@@H](NC(=O)c2cnc(C(F)F)cn2)C2CC2)nc2cc(C(F)(F)F)ncc21` [Example 27, N-[(S)-cyclopropyl[3-(propan-2-yl)-6-(trifluoromethyl)-3H-imidazo[4,5-c]pyridin-2-yl]methyl]-5-(difluoromethyl)pyrazine-2-carboxamide], the midpoint of inhibition, the IC50, lay at 31 nM. For `Cc1cnc(C(=O)N[C@H](c2nc3c(C)c(C#N)cnc3n2C(C)C)C2CC2)cn1` [Example 28, N-[(S)-[6-cyano-7-methyl-3-(propan-2-yl)-3H-imidazo[4,5-b]pyridin-2-yl](cyclopropyl)methyl]-5-methylpyrazine-2-carboxamide], the IC50 turned out to be 6 nM. The value for `CC(C)n1c([C@@H](NC(=O)c2cnc(C(F)F)cn2)C2CCC2)nc2cc(C#N)cnc21` [Example 30, N-[(S)-[6-cyano-3-(propan-2-yl)-3H-imidazo[4,5-b]pyridin-2-yl](cyclobutyl)methyl]-5-(difluoromethyl)pyrazine-2-carboxamide] was 14 nM; that for `COc1c(C#N)cnc2c1nc([C@@H](NC(=O)c1cnc(C)cn1)C1CC1)n2C(C)C` [Example 31] was 14 nM; that for `CC(C)n1c([C@@H](NC(=O)c2cnc(C(F)F)cn2)C2CC2)nc2cc(F)cnc21` [Example 32, N-[(S)-cyclopropyl[6-fluoro-3-(propan-2-yl)-3H-imidazo[4,5-b]pyridin-2-yl]methyl]-5-(difluoromethyl)pyrazine-2-carboxamide] was 15 nM. The molecule `Cc1cnc(C(=O)N[C@@H](CC2CC2)c2nc3cc(C#N)c(C)nc3n2C(C)C)cn1` [Example 33, N-[(1S)-1-[6-cyano-5-methyl-3-(propan-2-yl)-3H-imidazo[4,5-b]pyridin-2-yl]-2-cyclopropylethyl]-5-methylpyrazine-2-carboxamide] gave an IC50 of 15 nM.

On to `Cc1cnc(C(=O)N[C@H](c2nc3cc(Cl)cnc3n2C(C)C)[C@H]2CCCO2)cn1` [Example 34, N-[(R)-[6-chloro-3-(propan-2-yl)-3H-imidazo[4,5-b]pyridin-2-yl][(2R)-oxolan-2-yl]methyl]-5-methylpyrazine-2-carboxamide], for which the IC50 is 16 nM. `O=C(N[C@H](c1nc2cc(C(F)(F)F)ncc2n1CC(F)F)C1CC1)c1cnc(C(F)F)cn1` [Example 35, N-[(S)-cyclopropyl[3-(2,2-difluoroethyl)-6-(trifluoromethyl)-3H-imidazo[4,5-c]pyridin-2-yl]methyl]-5-(difluoromethyl)pyrazine-2-carboxamide] returned an IC50 of 18 nM. `Cc1c(C#N)cnc2c1nc([C@@H](NC(=O)c1cnc(C(F)F)cn1)[C@@H]1CCCO1)n2C(C)C` [Example 36, N-[(R)-[6-cyano-7-methyl-3-(propan-2-yl)-3H-imidazo[4,5-b]pyridin-2-yl][(2S)-oxolan-2-yl]methyl]-5-(difluoromethyl)pyrazine-2-carboxamide] had an IC50 of 18 nM. For `COC(C)(C)[C@H](NC(=O)c1cnc(C)cn1)c1nc2cccnc2n1C(C)C` [Example 37, N-[(1R)-2-methoxy-2-methyl-1-[3-(propan-2-yl)-3H-imidazo[4,5-b]pyridin-2-yl]propyl]-5-methylpyrazine-2-carboxamide], the IC50 worked out at 19 nM. Turning to `Cc1cnc(C(=O)N[C@@H](C[C@@H]2CCCO2)c2nc3c(C)c(C#N)cnc3n2C(C)C)cn1` [Example 38, N-[(1S)-1-[6-cyano-7-methyl-3-(propan-2-yl)-3H-imidazo[4,5-b]pyridin-2-yl]-2-[(2S)-oxolan-2-yl]ethyl]-5-methylpyrazine-2-carboxamide], the half-maximal inhibitory concentration (IC50) came out at 19 nM.

`Cc1cnc(C(=O)N[C@H](c2nc3c(C)nc(C(F)(F)F)cc3n2CC(F)F)C2CC2)cn1` [Example 39, N-[(S)-cyclopropyl[1-(2,2-difluoroethyl)-4-methyl-6-(trifluoromethyl)-1H-imidazo[4,5-c]pyridin-2-yl]methyl]-5-methylpyrazine-2-carboxamide]: the half-maximal inhibitory concentration (IC50) came out at 21 nM. `Cc1cnc(C(=O)N[C@H](c2nc3c(C)c(C#N)cnc3n2C(C)C)[C@H]2CCCO2)cn1` [Example 40, N-[(R)-[6-cyano-7-methyl-3-(propan-2-yl)-3H-imidazo[4,5-b]pyridin-2-yl][(2R)-oxolan-2-yl]methyl]-5-methylpyrazine-2-carboxamide] came in with an IC50 of 21 nM. With `Cc1cnc(C(=O)N[C@H](c2nc3cc(Cl)cnc3n2C(C)C)[C@@H]2CCCO2)cn1` [Example 41, N-[(R)-[6-chloro-3-(propan-2-yl)-3H-imidazo[4,5-b]pyridin-2-yl][(2S)-oxolan-2-yl]methyl]-5-methylpyrazine-2-carboxamide], the IC50 worked out at 21 nM. Next, `CO[C@H](C)[C@H](NC(=O)c1cnc(C)cn1)c1nc2c(C)c(C#N)cnc2n1C(C)C` [Example 42, N-[(1R,2R)-1-[6-cyano-7-methyl-3-(propan-2-yl)-3H-imidazo[4,5-b]pyridin-2-yl]-2-methoxypropyl]-5-methylpyrazine-2-carboxamide]: 21 nM. For `Cc1cnc(C(=O)N[C@H](c2nc3cnc(C(F)(F)F)cc3n2C(C)C)C2CC2)cn1` [Example 43, N-[(S)-cyclopropyl[1-(propan-2-yl)-6-(trifluoromethyl)-1H-imidazo[4,5-c]pyridin-2-yl]methyl]-5-methylpyrazine-2-carboxamide], the IC50 came out at 24 nM. The value for `Cc1cnc(C(=O)N[C@H](c2nc3cc(F)cnc3n2C(C)C)C2CC2)cn1` [Example 44, N-[(S)-cyclopropyl[6-fluoro-3-(propan-2-yl)-3H-imidazo[4,5-b]pyridin-2-yl]methyl]-5-methylpyrazine-2-carboxamide] was 26 nM; that for `CCn1c([C@@H](NC(=O)c2cnc(C)cn2)C2CC2)nc2c(C)nc(C(F)(F)F)cc21` [Example 45, N-[(S)-cyclopropyl[1-ethyl-4-methyl-6-(trifluoromethyl)-1H-imidazo[4,5-c]pyridin-2-yl]methyl]-5-methylpyrazine-2-carboxamide] was 33 nM. As to `O=C(N[C@H](c1nc2cnc(C(F)(F)F)cc2n1CC(F)F)C1CC1)c1cnc(C(F)F)cn1` [Example 46, N-[(S)-cyclopropyl[1-(2,2-difluoroethyl)-6-(trifluoromethyl)-1H-imidazo[4,5-c]pyridin-2-yl]methyl]-5-(difluoromethyl)pyrazine-2-carboxamide], the IC50 came out at 41 nM. This IC50 and that of the molecule before are within 1.5-fold of each other. The value for `CCn1c([C@@H](NC(=O)c2cnc(C)cn2)C2CC2)nc2cc(C(F)(F)F)ncc21` [Example 47, N-[(S)-cyclopropyl[3-ethyl-6-(trifluoromethyl)-3H-imidazo[4,5-c]pyridin-2-yl]methyl]-5-methylpyrazine-2-carboxamide] was 41 nM; that for `CCn1c([C@@H](NC(=O)c2cnc(C(F)F)cn2)C2CC2)nc2cc(C(F)(F)F)ncc21` [Example 48, N-[(S)-cyclopropyl[3-ethyl-6-(trifluoromethyl)-3H-imidazo[4,5-c]pyridin-2-yl]methyl]-5-(difluoromethyl)pyrazine-2-carboxamide] was 48 nM.

For the origin of these results see patent US20260199325A1, “NOVEL SUBSTITUTED PYRAZINE-CARBOXAMIDE-IMIDAZOPYRIDINE DERIVATIVES” (Boehringer Ingelheim International GmbH, priority 2022, published 2026).
